Data as given in patent US5281619A, “Therapy for diabetic complications” (Eli Lilly and Company, priority 1993, dated 1994).

Key:
[1] = test system: bovine retinal capillary endothelial cells; assay: Activation of bovine retinal capillary endothelial cells by phorbol esters (PA activity, cell number); assay type: cell-based; settings: for increase in endothelial cell activation (in words): phorbol esters known to activate PKC vs. 4-α analogues
From the text: Retinal capillary endothelial cell cultures were initiated from bovine eyes using a modification of the procedure of Buzney et al., Investigative Ophthalmology and Visual Sciences, 24: 470-480 (1983). Bovine eyes were transported on ice from a local abattoir. Extraocular muscle was trimmed from the eye, and the eye bisected posterior to the ora serrata. The vitreous and anterior portion of the eye were discarded, and the neuro-retina was gently dissected from the posterior eyecup. The retinas from 20 cattle were pooled and homogenized (5 strokes of a Teflon/glass homogenizer) in Hank's saline. The homogenate was passed through a 350μ filter to remove large debris and a 210μ filter to remove large vessels. The microvessels were trapped on a 85μ filter. The microvessels were resuspended in Hank's saline and digested with 7.5 mg/ml bacterial collagenase (Boeringher Mannheim, Indianapolis) Hank's saline for 1 hour at 37° C. The cells were pelleted by centrifugation (100 xg, 10 min), resuspended in 5 ml Endothelial Growth Media (EGM, Clonetics) and seeded in a gelatin-coated T-25 flask. After 24 hours the cells were trypsinized and replated in a gelatin coated T225. At 7 days and again at 14 days the cultures were labeled with acetylated lipoproteins labeled with the fluorescent probe (1,1'-dioctadecyl-3,3,3,3,-tetramethyl-indocarbocyanine perchlorate). The endothelial cells were separated from contaminating cell types using a fluorescent cell sorter as described in Voyta et al., J. Cell Biology, 99: 2034-2040 (1984).
Retinal capillary endothelial cells were seeded into 96-well plates and grown to confluence (10^5 cells/well) in EGM containing 10% fetal bovine serum (FBS). The media was changed to Dubecco's Modified Eagle's Medium with 10% fetal bovine serum 24 hours prior to the assay. The cells were treated with 50 nM 4-β phorbol 12,13-dibutyrate (4-β PDBu) to activate PKC and produce the activated endothelial phenotype characteristic of the diabetic state. The activated cells were treated with a series of dilutions of the test compounds. The phorbol esters and the test compounds were dissolved in DMSO before adding to the culture media. The cultures were incubated at 37° C. for 48 hours. Following treatment, the cells were lysed with 25mM NH4 OH in 0.5% triton X-100.
(§1) The activation of bovine retinal capillary endothelial cells was monitored through alterations in cellular plasminogen activator (PA) activity in the cell lysates. Plasminogen activator activity was determined in a 50 μl aliquot of cell lysate using the synthetic substrate H-D-valyl-L-leucyl-lysine-p-nitroaniline dihydrochloride (Kabi).
Dose-response curves generated for 4-β PDBu and 4-β PMA indicated […] of 50 nM and 5 nM respectively. Elevated PA activity was observed only after prolonged (at least 8 hours) stimulation with phorbol esters. The PA activity continued to increase in a time and dose dependent manner for up to 72 hours, but constant stimulation with phorbol ester was required to maintain endothelial cell activation.

[2] = test system: bovine retinal capillary endothelial cells; assay: Inhibition of phorbol ester-induced endothelial cell activation, plasminogen activator (PA) activity in cell lysates; assay type: cell-based; settings: Bos taurus, 4-β PDBu (50 nM) activated cells, 48 hours
From the text: Retinal capillary endothelial cell cultures were initiated from bovine eyes using a modification of the procedure of Buzney et al., Investigative Ophthalmology and Visual Sciences, 24: 470-480 (1983). Bovine eyes were transported on ice from a local abattoir. Extraocular muscle was trimmed from the eye, and the eye bisected posterior to the ora serrata. The vitreous and anterior portion of the eye were discarded, and the neuro-retina was gently dissected from the posterior eyecup. The retinas from 20 cattle were pooled and homogenized (5 strokes of a Teflon/glass homogenizer) in Hank's saline. The homogenate was passed through a 350μ filter to remove large debris and a 210μ filter to remove large vessels. The microvessels were trapped on a 85μ filter. The microvessels were resuspended in Hank's saline and digested with 7.5 mg/ml bacterial collagenase (Boeringher Mannheim, Indianapolis) Hank's saline for 1 hour at 37° C. […]
as §1

[3] = test system: Glucose-Induced Vascular Dysfunction in Normal Rats; assay: Glucose-induced vascular dysfunction in rat granulation tissue chamber model (permeability and blood flow); assay type: in vivo; settings: twice daily for 7 days, 30-35 mM glucose
Description: Representative compounds were evaluated in situ for their ability to block the increase in blood flow and permeability induced by high glucose in a rat tissue granulation tissue chamber model. In this model circles of skin were removed from the backs of normal rats and stainless steel screw-cap chambers were mounted. New granulation tissue formed within the chambers. Addition of 30-35 mM glucose (0.5 ml) twice daily to the chambers for 7 days induced a vascular dysfunction similar to that of diabetes--that is there was an increase in blood vessel permeability and an increase in blood flow. Blood flow was measured through the use of radiolabeled microspheres, and permeability was quantified using a dual label technique with iodinated albumin (^125 I/^131 I). Details of the model can be found in Tilton, et al., Diabetes38: 1258-1270 (1989). and Williamson, et al., J. Clin. Invest. 85: 1167-1172 (1990).
Representative compounds were dissolved in DMSO and diluted in a balanced salt solution to achieve a final concentration of 20 or 50 μM. The granulation chamber tissue was treated twice daily for 7 days to determine their effects on glucose-induced vascular dysfunction. Addition of 30-35 mM glucose to the granulation chamber induced a vascular dysfunction characterized by increased vessel permeability and increased blood flow.

[4] = test system: vasculature in streptozotocin-diabetic rats; assay: Microvascular dysfunction associated with streptozotocin-induced diabetes in rats (permeability and blood flow); assay type: in vivo, rat; settings: 0.1% in diet, 4 to 7-week period
Description: Representative compounds were further evaluated for their ability to block the microvascular dysfunction associated with streptozotocin-induced diabetes. Rats were made diabetic with an injection of streptozotocin, and the rats were feed ad libitum with a diet containing 0.1% of a representative compound. Blood flow was measured through the use of radiolabeled microspheres while permeability was quantified using a dual label technique with iodinated albumin (^125 I/^131 I). Details of the model can be found in Tilton et al., Diabetes38: 1258-1270 (1989), and Williamson et al., J. Clin. Invest. 85: 1167-1172 (1990).
Blood flow also was elevated on induction of diabetes in these tissues. In contrast, vascular function was not affected in the brain or muscle.

CCCC(=O)OC1C(C)C2(O)C(C=C(CO)CC3(O)C(=O)C(C)=CC32)C2C(C)(C)C12OC(=O)CCC (stereo not drawn) [4-α PDBu]
increase in endothelial cell activation (in words) [1]: not

CCCCCCCCCCCCCC(=O)OC1C(C)C2(O)C(C=C(CO)CC3(O)C(=O)C(C)=CC32)C2C(C)(C)C12OC(C)=O (stereo not drawn) [4-α PMA]
increase in endothelial cell activation (in words) [1]: not

CCCC(=O)OC1C(C)C2(O)C(C=C(CO)CC3(O)C(=O)C(C)=CC32)C2C(C)(C)C12OC(=O)CCC (stereo not drawn) [4-β PDBu, 4-β phorbol 12,13-dibutyrate]
increase in PA activity associated with the cell layer ([1]; confluent cells, 48 hours): 12 fold | increase in PA released into the media ([1]; confluent cells, 48 hours): 12 fold | increase in cell number ([1]; confluent cells, 48 hours): two fold increase in cell number | increase in endothelial cell activation (in words) [1]: increase in activation occurred

CCCCCCCCCCCCCC(=O)OC1C(C)C2(O)C(C=C(CO)CC3(O)C(=O)C(C)=CC32)C2C(C)(C)C12OC(C)=O (stereo not drawn) [4-β PMA]
IC50 ([1]; Bos taurus, Endothelial cell, dose-response curves for phorbol esters): 5 nM | increase in endothelial cell activation (in words) [1]: increase in activation occurred

N#CC1=C(N)Oc2c(ccc3ccccc23)C1c1ccccc1[N+](=O)[O-] (stereo not shown) [Example 5, 2-Amino-4-(2-nitrophenyl)-4H-naphtho[1,2-b]pyran-3-carbonitrile]
IC50 [2]: 500 nM | BSA Clearance ([3]; 20 μM): 163 µg/g/min | Blood Flow ([3]; 20 μM): 0.231 mL/g/min

N#CC1=C(N)Oc2c(ccc3ccccc23)C1c1cccc([N+](=O)[O-])c1 (stereo not shown) [Example 6, 2 Amino-4-(3-nitrophenyl)-4H-naphtho[1,2-b]pyran-3-carbonitrile]
IC50 [2]: 25 nM | BSA Clearance ([3]; 20 μM): 179 µg/g/min | Blood Flow ([3]; 20 μM): 0.184 mL/g/min | BSA Clearance ([3]; 50 μM): 158 µg/g/min | Blood Flow ([3]; 50 μM): 0.168 mL/g/min | development of increased permeability and blood flow (in words) [4]: prevented the development of increased permeability and blood flow | Permeability, Aorta ([4]; aorta, diabetic rats): 99.00 µg/g/min | Blood Flow, Brain ([4]; brain, diabetic rats): 0.88 mL/min/g | Permeability, Brain ([4]; brain, diabetic rats): 19.00 µg/g/min | Permeability, Muscle ([4]; muscle, diabetic rats): 63.00 µg/g/min | Blood Flow, Nerve ([4]; nerve, diabetic rats): 0.05 mL/min/g | Permeability, Nerve ([4]; nerve, diabetic rats): 63.00 µg/g/min | Blood Flow, Retina ([4]; retina, diabetic rats): 0.40 mL/min/g | Permeability, Retina ([4]; retina, diabetic rats): 59.00 µg/g/min
